Four compounds from patent US20250115594A1, “ANTIBACTERIAL AGENTS: SOLUBLE SALTS AND AQUEOUS FORMULATIONS OF PYRONINS” (priority 2018, published 2025) can be followed below.

pIC50: −log10 of the molar value. In brackets after ≈: the same amount, converted by molar mass. Some results are limits rather than exact numbers.

The first experiment concerns the target E. coli RNA polymerase σ70 holoenzyme (Escherichia coli (strain K12), UniProt P0A8T7+P0A8V2). The experiment can be described thus: Fluorescence-detected assay of inhibition of Escherichia coli RNA polymerase. In kind it is biochemical. Particulars: read-out: RNAP-inhibitory activity E. coli RNAP IC50. As for the experimental part:
(§1) Fluorescence-detected RNA polymerase assays with E. coli RNA polymerase were performed by a modification of the procedure of Kuhlman et al., 2004 [Kuhlman, P., Duff, H. & Galant, A. (2004) A fluorescence-based assay for multisubunit DNA-dependent RNA polymerases. Anal. Biochem. 324, 183-190]. Reaction mixtures contained (20 μl): 0-100 nM test salt, 75 nM E. coli RNA polymerase σ^70 holoenzyme, 20 nM 384 bp DNA fragment containing the bacteriophage T4 N25 promoter, 100 μM ATP, 100 μM GTP, 100 μM UTP, 100 μM CTP, 50 mM Tris-HCl, pH 8.0, 100 mM KCl, 10 mM MgCl2, 1 mM DTT, 10 μg/ml bovine serum albumin, and 5.5% glycerol. Reaction components other than DNA and NTPs were pre-incubated for 10 min at 37° C. Reactions were carried out by addition of DNA and incubation for 5 min at 37° C., followed by addition of NTPs and incubation for 60 min at 37° C. DNA was removed by addition of 1 μl 5 mM CaCl2 and 2 U DNaseI (Ambion, Inc.), followed by incubation for 90 min at 37° C. RNA was quantified by addition of 100 μl RiboGreen RNA Quantitation Reagent (Invitrogen, Inc.; 1:500 dilution in Tris-HCl, pH 8.0, 1 mM EDTA), followed by incubation for 10 min at 25° C., followed by measurement of fluorescence intensity [excitation wavelength=485 nm and emission wavelength=535 nm; QuantaMaster QM1 spectrofluorometer (PTI, Inc.)]. IC50 is defined as the concentration of inhibitor resulting in 50% inhibition of RNA polymerase activity.
Regarding `[2H]C([2H])([2H])OC(=O)N/C=C/CCCc1cc(O)c(C(=O)/C(C)=C/c2cnc(Oc3ccc(F)c(Cl)c3)s2)c(=O)o1` [Example 11], the negative-log IC50 (pIC50) is 8.52.

As for `[2H]C([2H])([2H])OC(=O)N/C=C/CCCc1cc(O)c(C(=O)/C(C)=C/c2cnc(Oc3ccc(-c4ccccc4)cc3)s2)c(=O)o1` [Example 13], the pIC50 is 7.70.

Turning to `[2H]C([2H])([2H])OC(=O)N/C=C/CCCc1cc([O-])c(C(=O)/C(C)=C/c2cnc(Oc3ccc(-c4ccccc4)cc3)s2)c(=O)o1.[Na+]` [Example 14], the pIC50 is 7.30.

Another experiment addresses M. tuberculosis RNA polymerase (Mycobacterium tuberculosis (strain ATCC 25618 / H37Rv), UniProt P9WGY7+P9WGY9). The experiment can be described thus: Fluorescence-detected assay of inhibition of Mycobacterium tuberculosis RNA polymerase. In kind it is biochemical. Particulars: read-out: RNAP-inhibitory activity M. tuberculosis RNAP IC50. The procedure: as §1
Fluorescence-detected RNA polymerase assays with M. tuberculosis RNA polymerase were performed as in Example 17.1, using reaction mixtures containing (20 μl): 0-100 nM test salt, 75 nM M. tuberculosis RNA polymerase core enzyme, 300 nM M. tuberculosis σ^A, 20 nM 384 bp DNA fragment containing the bacteriophage T4 N25 promoter, 100 μM ATP, 100 μM GTP, 100 μM UTP, 100 μM CTP, 40 mM Tris-HCl, pH 8.0, 80 mM NaCl, 5 mM MgCl2, 2.5 mM DTT, and 12.7% glycerol. IC50 is defined as the concentration of inhibitor resulting in 50% inhibition of RNA polymerase activity.
`[2H]C([2H])([2H])OC(=O)N/C=C/CCCc1cc(O)c(C(=O)/C(C)=C/c2cnc(Oc3ccc(F)c(Cl)c3)s2)c(=O)o1` [Example 11]: the pIC50 is 7.52.

Turning to `[2H]C([2H])([2H])OC(=O)N/C=C/CCCc1cc([O-])c(C(=O)/C(C)=C/c2cnc(Oc3ccc(F)c(Cl)c3)s2)c(=O)o1.[Na+]` [Example 12], the pIC50 is 7.52.

For `[2H]C([2H])([2H])OC(=O)N/C=C/CCCc1cc(O)c(C(=O)/C(C)=C/c2cnc(Oc3ccc(-c4ccccc4)cc3)s2)c(=O)o1` [Example 13], the pIC50 was less than 5.22.

Consider `[2H]C([2H])([2H])OC(=O)N/C=C/CCCc1cc([O-])c(C(=O)/C(C)=C/c2cnc(Oc3ccc(-c4ccccc4)cc3)s2)c(=O)o1.[Na+]` [Example 14], for which the negative logarithm of the IC50 (pIC50) is less than 5.22.

The target of the next experiment is S. aureus RNA polymerase (Staphylococcus aureus (strain NCTC 8325 / PS 47), UniProt P47768+Q2G0N5). The experiment can be described thus: Fluorescence-detected assay of inhibition of Staphylococcus aureus RNA polymerase. In kind it is biochemical. Particulars: read-out: RNAP-inhibitory activity S. aureus RNAP IC50. The procedure:
as §1
Fluorescence-detected RNA polymerase assays with S. aureus RNA polymerase were performed as in Example 17.1, using reaction mixtures containing (20 μl): 0-100 nM test salt, 75 nM S. aureus RNA polymerase core enzyme, 300 nM S. aureus σ^A, 20 nM 384 bp DNA fragment containing the bacteriophage T4 N25 promoter, 100 μM ATP, 100 μM GTP, 100 μM UTP, 100 μM CTP, 40 mM Tris-HCl, pH 8.0, 80 mM NaCl, 5 mM MgCl2, 2.5 mM DTT, and 12.7% glycerol. IC50 is defined as the concentration of inhibitor resulting in 50% inhibition of RNA polymerase activity.
As for `[2H]C([2H])([2H])OC(=O)N/C=C/CCCc1cc(O)c(C(=O)/C(C)=C/c2cnc(Oc3ccc(F)c(Cl)c3)s2)c(=O)o1` [Example 11], the negative logarithm of the IC50 (pIC50) is 9.00.

With `[2H]C([2H])([2H])OC(=O)N/C=C/CCCc1cc([O-])c(C(=O)/C(C)=C/c2cnc(Oc3ccc(F)c(Cl)c3)s2)c(=O)o1.[Na+]` [Example 12], the pIC50 was 8.52.

As for `[2H]C([2H])([2H])OC(=O)N/C=C/CCCc1cc(O)c(C(=O)/C(C)=C/c2cnc(Oc3ccc(-c4ccccc4)cc3)s2)c(=O)o1` [Example 13], the pIC50 was 8.00.

For `[2H]C([2H])([2H])OC(=O)N/C=C/CCCc1cc([O-])c(C(=O)/C(C)=C/c2cnc(Oc3ccc(-c4ccccc4)cc3)s2)c(=O)o1.[Na+]` [Example 14], the negative-log IC50 (pIC50) is 7.52.

The next experiment has as its system Staphylococcus aureus ATCC 12600. The experiment can be described thus: Inhibition of bacterial growth, spiral gradient endpoint assay, S. aureus. In kind it is cell-based. Particulars: ATCC12600, read-out: in vitro antibacterial activity S. aureus ATCC12600 MIC. From the text:
(§2) Minimum inhibitory concentrations (MICs) for Staphylococcus aureus ATCC 12600 and Escherichia coli D21f2tolC were quantified using spiral gradient endpoint assays, essentially as described [Wallace, A. and Corkill, J. (1989) Application of the spiral plating method to study antimicrobial action. J. Microbiol. Meths. 10, 303-310; Paton, J., Holt, A., and Bywater, M. (1990) Measurement of MICs of antibacterial agents by spiral gradient endpoint compared with conventional dilution methods. Int. J. Exp. Clin. Chemother. 3, 31-38; Schalkowsky S. (1994) Measures of susceptibility from a spiral gradient of drug concentrations. Adv. Exp. Med. Biol. 349, 107-120]. Assays employed exponential-gradient plates containing 150 mm×4 mm Mueller-Hinton II cation-adjusted agar and 0.4-100 μg/ml of test salt. Plates were prepared using an Autoplate 4000 spiral plater (Spiral Biotech, Inc.). Saturated overnight cultures were swabbed radially onto plates, and plates were incubated for 16 h at 37° C. For each culture, the streak length was measured using a clear plastic template (Spiral Biotech, Inc.), the test-salt concentration at the streak endpoint was calculated using the program SGE (Spiral Biotech, Inc.), and the MIC was defined as the calculated test-salt concentration at the streak endpoint.
`[2H]C([2H])([2H])OC(=O)N/C=C/CCCc1cc(O)c(C(=O)/C(C)=C/c2cnc(Oc3ccc(F)c(Cl)c3)s2)c(=O)o1` [Example 11]: the minimal inhibitory concentration (MIC) amounted to 0.2 µg/mL (≈ 0.362 µM).

For `[2H]C([2H])([2H])OC(=O)N/C=C/CCCc1cc([O-])c(C(=O)/C(C)=C/c2cnc(Oc3ccc(F)c(Cl)c3)s2)c(=O)o1.[Na+]` [Example 12], the minimal inhibitory concentration (MIC) came out at 0.2 µg/mL.

Take `[2H]C([2H])([2H])OC(=O)N/C=C/CCCc1cc(O)c(C(=O)/C(C)=C/c2cnc(Oc3ccc(-c4ccccc4)cc3)s2)c(=O)o1` [Example 13]: the MIC was more than 8 µg/mL.

Take `[2H]C([2H])([2H])OC(=O)N/C=C/CCCc1cc([O-])c(C(=O)/C(C)=C/c2cnc(Oc3ccc(-c4ccccc4)cc3)s2)c(=O)o1.[Na+]` [Example 14]: the MIC is more than 8 µg/mL.

Another experiment relates to Escherichia coli D21f2tolC. The experiment can be described thus: Inhibition of bacterial growth, spiral gradient endpoint assay, E. coli. In kind it is cell-based. Particulars: read-out: in vitro antibacterial activity E. coli D21f2tolC MIC.
Excerpt: as §2
Consider `[2H]C([2H])([2H])OC(=O)N/C=C/CCCc1cc(O)c(C(=O)/C(C)=C/c2cnc(Oc3ccc(F)c(Cl)c3)s2)c(=O)o1` [Example 11], for which the MIC came to 0.02 µg/mL (≈ 0.0362 µM).

Turning to `[2H]C([2H])([2H])OC(=O)N/C=C/CCCc1cc([O-])c(C(=O)/C(C)=C/c2cnc(Oc3ccc(F)c(Cl)c3)s2)c(=O)o1.[Na+]` [Example 12], the MIC was 0.03 µg/mL.

Consider `[2H]C([2H])([2H])OC(=O)N/C=C/CCCc1cc(O)c(C(=O)/C(C)=C/c2cnc(Oc3ccc(-c4ccccc4)cc3)s2)c(=O)o1` [Example 13], for which the minimal inhibitory concentration (MIC) was 0.03 µg/mL (≈ 0.0521 µM).

Take `[2H]C([2H])([2H])OC(=O)N/C=C/CCCc1cc([O-])c(C(=O)/C(C)=C/c2cnc(Oc3ccc(-c4ccccc4)cc3)s2)c(=O)o1.[Na+]` [Example 14]: the minimal inhibitory concentration (MIC) was 0.03 µg/mL.

The test system of another experiment is Mycobacterium tuberculosis H37Rv. The experiment can be described thus: Inhibition of bacterial growth, microplate Alamar Blue assay, M. tuberculosis. In kind it is cell-based. Particulars: read-out: in vitro antibacterial activity M. tuberculosis H37Rv MIC.
Regarding `[2H]C([2H])([2H])OC(=O)N/C=C/CCCc1cc(O)c(C(=O)/C(C)=C/c2cnc(Oc3ccc(F)c(Cl)c3)s2)c(=O)o1` [Example 11], the MIC was determined as 0.8 µg/mL (≈ 1.45 µM).

`[2H]C([2H])([2H])OC(=O)N/C=C/CCCc1cc([O-])c(C(=O)/C(C)=C/c2cnc(Oc3ccc(F)c(Cl)c3)s2)c(=O)o1.[Na+]` [Example 12]: the minimal inhibitory concentration (MIC) came out at 0.8 µg/mL.

As to `[2H]C([2H])([2H])OC(=O)N/C=C/CCCc1cc(O)c(C(=O)/C(C)=C/c2cnc(Oc3ccc(-c4ccccc4)cc3)s2)c(=O)o1` [Example 13], the MIC was more than 50 µg/mL.

As to `[2H]C([2H])([2H])OC(=O)N/C=C/CCCc1cc([O-])c(C(=O)/C(C)=C/c2cnc(Oc3ccc(-c4ccccc4)cc3)s2)c(=O)o1.[Na+]` [Example 14], the MIC is more than 50 µg/mL.
